# Values joined by “and” are separate entries in the source; they are usually repeats but may differ in a detail not shown here. Identical values can stand only once. Records with an inconclusive call do not appear.
# Test system: MX-1 breast xenograft, nude mice, tumor weight T/C
# Test: NCI In Vivo Anticancer Drug Screen. Data for tumor model Human Mammary Carcinoma MX-1 Xenograft (intrarenal inoculation) in NU/NU Swiss (nude) mice
# Conditions: endpoint: mean tumor weight change, higher = larger tumour
# In short: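 Compound dosed to mice with transplantable tumor; vehicle group as control. Endpoint survival or tumour size, reported as T/C.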
# [1] = dose: 300.0 mg/kg/injection, schedule: Q04DX003 (sc), vehicle: saline with Tween-80
# [2] = dose: 600.0 mg/kg/injection, schedule: Q04DX003 (sc), vehicle: suspension in saline
compound,measurement,setting,value
O=C(O)c1c2c(nc3ccccc13)Cc1ccccc1-2,T/C,"dose: 25.0 mg/kg/injection, schedule: Q01DX010 (sc), vehicle: water",108 % of control
same,T/C,"dose: 200.0 mg/kg/injection, schedule: Q01DX010 (sc), vehicle: water",46 % of control
CCN1C=C/C(=C\C=C/c2cc[n+](CC)c3ccccc23)c2ccccc21,T/C,"dose: 0.25 mg/kg/injection, schedule: Q01DX010 (sc), vehicle: saline",111 % of control
same,T/C,"dose: 0.5 mg/kg/injection, schedule: Q01DX010 (sc), vehicle: saline",173 % of control
same,T/C,"dose: 1.0 mg/kg/injection, schedule: Q01DX010 (sc), vehicle: saline",82 % of control
CCc1ccccc1N1CCN(C(=O)c2cc(OC)c(OC)c(OC)c2)CC1,T/C,"dose: 100.0 mg/kg/injection, schedule: Q04DX003 (sc), vehicle: Klucel (hydroxypropylcellulose) (HPC)",88 % of control
same,T/C,"dose: 200.0 mg/kg/injection, schedule: Q04DX003 (sc), vehicle: Klucel (hydroxypropylcellulose) (HPC)",86 % of control
same,T/C,"dose: 400.0 mg/kg/injection, schedule: Q04DX003 (sc), vehicle: Klucel (hydroxypropylcellulose) (HPC)",50 % of control
O=c1n(CC2CO2)c(=O)n(CC2CO2)n1CC1CO1 (configuration not stated),T/C,"dose: 9.38 mg/kg/injection, schedule: Q04DX003 (sc), vehicle: saline",57 % of control
same,T/C,"dose: 18.7 mg/kg/injection, schedule: Q04DX003 (sc), vehicle: saline",4 % of control
same,T/C,"dose: 18.75 mg/kg/injection, schedule: Q04DX003 (sc), vehicle: saline",2 % of control
same,T/C,"dose: 29.0 mg/kg/injection, schedule: Q04DX003 (sc), vehicle: saline",-11 % of control
same,T/C,"dose: 37.5 mg/kg/injection, schedule: Q04DX003 (sc), vehicle: saline",-83 % of control and -73 % of control
Nc1nc(N)c(N=O)c(Nc2ccc(Br)cc2)n1,T/C,[1],42 % of control
same,T/C,"dose: 600.0 mg/kg/injection, schedule: Q04DX003 (sc), vehicle: saline with Tween-80",42 % of control
same,T/C,"dose: 1200.0 mg/kg/injection, schedule: Q04DX003 (sc), vehicle: saline with Tween-80",38 % of control
same,T/C,"dose: 2400.0 mg/kg/injection, schedule: Q04DX003 (sc), vehicle: saline with Tween-80",40 % of control
OC(CBr)C(O)C(O)C(O)CBr (configuration not stated),T/C,"dose: 15.0 mg/kg/injection, schedule: Q01DX010 (sc), vehicle: Klucel (hydroxypropylcellulose) (HPC)",39 % of control and 42 % of control
same,T/C,"dose: 800.0 mg/kg/injection, schedule: Q01DX010 (sc), vehicle: Klucel (hydroxypropylcellulose) (HPC)",-100 % of control
same,T/C,"dose: 1600.0 mg/kg/injection, schedule: Q01DX010 (sc), vehicle: Klucel (hydroxypropylcellulose) (HPC)",-87 % of control
Cn1cc(C2NC(=O)c3ccccc3N2)c2ccccc21 (configuration not stated),T/C,"dose: 150.0 mg/kg/injection, schedule: Q04DX003 (sc), vehicle: Klucel (hydroxypropylcellulose) (HPC)",113 % of control
same,T/C,"dose: 1200.0 mg/kg/injection, schedule: Q04DX003 (sc), vehicle: Klucel (hydroxypropylcellulose) (HPC)",108 % of control
CCCCCC(O)C1C(=O)OC(C)C(O)/C=C/C=C/C=C/C=C\C=C(\C)C(O)CC(O)CC(O)CC(O)CC(O)CC(O)CC1O (configuration not stated),T/C,"dose: 300.0 mg/kg/injection, schedule: Q04DX003 (sc), vehicle: distilled water + alcohol",84 % of control
same,T/C,"dose: 600.0 mg/kg/injection, schedule: Q04DX003 (sc), vehicle: distilled water + alcohol",107 % of control
same,T/C,"dose: 1200.0 mg/kg/injection, schedule: Q04DX003 (sc), vehicle: distilled water + alcohol",69 % of control
CS(=O)(=O)OCCN(CCOS(C)(=O)=O)c1ccc(C=Nc2ccc(-c3csc(COc4ccccc4)n3)cc2)cc1,T/C,"dose: 50.0 mg/kg/injection, schedule: Q01DX010 (sc), vehicle: Klucel (hydroxypropylcellulose) (HPC)",37 % of control
same,T/C,"dose: 100.0 mg/kg/injection, schedule: Q01DX010 (sc), vehicle: Klucel (hydroxypropylcellulose) (HPC)",-18 % of control
same,T/C,"dose: 200.0 mg/kg/injection, schedule: Q01DX010 (sc), vehicle: Klucel (hydroxypropylcellulose) (HPC)",-84 % of control
CC1=CC(=NN=c2cc(C)n([O-])c(C)c2)C=C(C)[N+]1=O,T/C,"dose: 300.0 mg/kg/injection, schedule: Q04DX003 (sc), vehicle: suspension in saline",90 % of control
same,T/C,[2],36 % of control
same,T/C,"dose: 1200.0 mg/kg/injection, schedule: Q04DX003 (sc), vehicle: suspension in saline",112 % of control
same,T/C,"dose: 2400.0 mg/kg/injection, schedule: Q04DX003 (sc), vehicle: suspension in saline",32 % of control
C[CH2][Ge]([CH2]C)[CH2]C.C[CH2][Ge]([CH2]C)[CH2]C.C[CH2][Ge]([CH2]C)[O][Ge]([CH2]C)[CH2]C,T/C,"dose: 150.0 mg/kg/injection, schedule: Q04DX003 (sc), vehicle: saline with Tween-80",109 % of control
same,T/C,[1],79 % of control
Nc1cc(Cl)c2[nH]cnc2n1,T/C,"dose: 200.0 mg/kg/injection, schedule: Q04DX003 (sc), vehicle: water",47 % of control
same,T/C,"dose: 400.0 mg/kg/injection, schedule: Q04DX003 (sc), vehicle: water",42 % of control
same,T/C,"dose: 800.0 mg/kg/injection, schedule: Q04DX003 (sc), vehicle: water",55 % of control
CC1CC(C)CC(C)C(O)/C(C#N)=C/C=C/CC(C2CCCC2C(=O)O)OC(=O)CC(O)C(C)C1 (configuration not stated),T/C,"dose: 6.0 mg/kg/injection, schedule: Q04DX003 (sc), vehicle: Klucel (hydroxypropylcellulose) (HPC)",87 % of control
same,T/C,"dose: 12.0 mg/kg/injection, schedule: Q04DX003 (sc), vehicle: Klucel (hydroxypropylcellulose) (HPC)",79 % of control
O=C(NO)c1cc(O)c(O)c(O)c1,T/C,"dose: 200.0 mg/kg/injection, schedule: Q04DX003 (sc), vehicle: distilled water + Tween-80",64 % of control
same,T/C,"dose: 400.0 mg/kg/injection, schedule: Q04DX003 (sc), vehicle: distilled water + Tween-80",109 % of control
same,T/C,"dose: 800.0 mg/kg/injection, schedule: Q04DX003 (sc), vehicle: distilled water + Tween-80",122 % of control
Nc1nc([Se])c2ncn(C3OC(CO)C(O)C3O)c2n1 (configuration not stated),T/C,"dose: 2.0 mg/kg/injection, schedule: Q01DX010 (sc), vehicle: saline",85 % of control and 101 % of control
same,T/C,"dose: 6.66 mg/kg/injection, schedule: Q04DX003 (ip), vehicle: saline",76 % of control
same,T/C,"dose: 6.66 mg/kg/injection, schedule: Q04DX003 (sc), vehicle: saline",72 % of control
same,T/C,"dose: 8.0 mg/kg/injection, schedule: Q01DX010 (ip), vehicle: saline",45 % of control
same,T/C,"dose: 13.33 mg/kg/injection, schedule: Q04DX003 (ip), vehicle: saline",46 % of control
same,T/C,"dose: 26.65 mg/kg/injection, schedule: Q04DX003 (ip), vehicle: saline",74 % of control
same,T/C,"dose: 53.3 mg/kg/injection, schedule: Q04DX003 (ip), vehicle: saline",63 % of control
same,T/C,"dose: 53.33 mg/kg/injection, schedule: Q04DX003 (sc), vehicle: saline",89 % of control
NC(=O)SCC(N)C(=O)O (configuration not stated),T/C,"dose: 225.0 mg/kg/injection, schedule: Q04DX003 (sc), vehicle: suspension in saline",73 % of control
same,T/C,"dose: 400.0 mg/kg/injection, schedule: Q04DX003 (sc), vehicle: suspension in saline",62 % of control
same,T/C,"dose: 450.0 mg/kg/injection, schedule: Q04DX003 (sc), vehicle: suspension in saline",49 % of control
same,T/C,[2],57 % of control
CCCCCCCCCCS(=O)CC(CO)NC(=O)/C=C/c1c(C)[nH]c(=O)[nH]c1=O (configuration not stated),T/C,"dose: 9.38 mg/kg/injection, schedule: Q04DX003 (sc), vehicle: distilled water + Tween-80",88 % of control
same,T/C,"dose: 18.75 mg/kg/injection, schedule: Q04DX003 (sc), vehicle: distilled water + Tween-80",113 % of control
same,T/C,"dose: 37.5 mg/kg/injection, schedule: Q04DX003 (sc), vehicle: distilled water + Tween-80",46 % of control
COc1cc2cc3c4cc(OC)c(OC)cc4cc[n+]3c(C)c2cc1OC (tested in a mixture with another compound),T/C,"dose: 75.0 mg/kg/injection, schedule: Q04DX003 (sc), vehicle: saline",79 % of control
same,T/C,"dose: 150.0 mg/kg/injection, schedule: Q04DX003 (sc), vehicle: saline",60 % of control
COc1cccc2c1C(=O)c1c(O)c3c(c(O)c1C2=O)C[C@@](O)(/C(C)=N/NC(=O)c1cccc([N+](=O)[O-])c1)C[C@@H]3OC1CC(N)C(O)C(C)O1 (some centres not stated),T/C,"dose: 4.0 mg/kg/injection, schedule: Q01DX010 (sc), vehicle: water",89 % of control
same,T/C,"dose: 8.0 mg/kg/injection, schedule: Q01DX010 (sc), vehicle: water",43 % of control
same,T/C,"dose: 16.0 mg/kg/injection, schedule: Q01DX010 (sc), vehicle: water",104 % of control
C=C1C(C)C2C(Cc3ccccc3)NC(=O)C23C(OC(C)=O)C=CC(C)(O)C(=O)C(C)C/C=C/C3C1O (configuration not stated),T/C,"dose: 3.75 mg/kg/injection, schedule: Q04DX003 (sc), vehicle: Klucel (hydroxypropylcellulose) (HPC)",344 % of control
same,T/C,"dose: 7.5 mg/kg/injection, schedule: Q04DX003 (sc), vehicle: Klucel (hydroxypropylcellulose) (HPC)",528 % of control
same,T/C,"dose: 15.0 mg/kg/injection, schedule: Q04DX003 (sc), vehicle: Klucel (hydroxypropylcellulose) (HPC)",497 % of control
COC(=O)C12OCC34C(CC5C(C)=CC(=O)C(O)C5(C)C3C(O)C1O)OC(=O)C(OC(=O)CC(C)C)C24 (configuration not stated),T/C,"dose: 1.5 mg/kg/injection, schedule: Q04DX003 (sc), vehicle: saline + alcohol",107 % of control
same,T/C,"dose: 3.0 mg/kg/injection, schedule: Q04DX003 (sc), vehicle: saline + alcohol",58 % of control
